Laboratory results published in article PMC10564737, “Structure-based design of a phosphotyrosine-masked covalent ligand targeting the E3 ligase SOCS2” (Nature Communications, 2023).

Key:
[1] = In-cell time-resolved 19F-NMR of prodrug unmasking; assay type: in vitro ADME; settings: human, K562 cell suspension (65% v/v cell content), 37 °C, read-out: half-life time of prodrug unmasking in cells
Description: (§1) Although, with the live-cell CETSA setup we could rank the prodrugs for overall potency, we cannot decouple the individual contributions of cellular permeability and prodrug unmasking rate. To understand the rate of unmasking inside the live cells, we developed an in-cell time-resolved ^19F-NMR to monitor the rate of POM group unmasking (Fig. 5). ^19F-NMR is uniquely suited for this task due to the high receptivity of ^19F, low background in biological samples, and remarkable sensitivity of ^19F chemical shifts to their chemical environment[43],[44]. The latter means that even the distant fluorine of MN551 could act as a reporter for the presence of the masking group on the phosphotyrosine moiety. […] While the downfield peak starts off with higher intensity, it loses intensity quickly and within an hour is overtaken by the growing upfield peak. Within 3 h the downfield peak completely disappears and only the upfield peak is observed. […]
(§2) K562 cells were maintained in IMDM media supplemented with 10% FBS. […] To confirm the identity of the observed species, the lysate was sequentially spiked with 500 µM MN551 and prodrug and measured again. […] All spectra were processed and analyzed using Topspin 4.1.1.

[2] = tested on: K562 cells; experiment: In-cell time-resolved 19F-NMR of prodrug unmasking; assay type: in vitro ADME; settings: K562 cell suspension, 500 µM, 37 °C
Description: as §1, §2

[3] = biological target: T1, SOCS2 Cys111 (Homo sapiens, UniProt O14508); experiment: SOCS2 immunoprecipitation and tandem MS (LC-MS/MS) of Cys111 peptide from treated K562 cells; assay type: cell-based; settings: 6 h
T1 construct: MN551 covalently modifies cellular SOCS2 specifically at Cys111; endogenous in cells; host or cells: K562
T1 sequence (O14508 1-198): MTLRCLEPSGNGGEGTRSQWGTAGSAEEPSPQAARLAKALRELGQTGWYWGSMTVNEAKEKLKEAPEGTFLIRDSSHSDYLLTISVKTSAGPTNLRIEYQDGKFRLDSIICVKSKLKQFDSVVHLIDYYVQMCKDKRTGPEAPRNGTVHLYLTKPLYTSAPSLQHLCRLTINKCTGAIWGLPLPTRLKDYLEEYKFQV
Method: While CETSA and GHR pulldown experiments allow ascertaining the engagement of cellular SOCS2, distinguishing reversible binding from covalent binding remains a challenge. […] Moreover, the MS2 spectra for cells treated with 1 μM and 10 μM MN714 show a dose-dependent increase in levels of SOCS2 modification (Fig. 6e).
Cells were treated with either DMSO, 1 μM, or 10 μM MN714 for 6 h in 10 cm dish. Cells were harvested, washed with PBS, and lysed in […] RIPA buffer (Sigma-R0278: 150 mM NaCl, 1.0% IGEPAL® CA-630, 0.5% sodium deoxycholate, 0.1% SDS, 50 mM Tris, pH 8.0, and freshly added protease inhibitor tablet). Cellular debris was pelleted, the lysate supernatant was aspirated to a new tube and subjected to immunoprecipitation at 4 °C for 4 h with 3 μl anti-SOCS2 antibody coupled to 20 μl of protein A/G beads (abcam- ab109245). The beads were washed 3 times with 1× RIPA buffer and precipitated protein samples were eluted with 1 × NuPAGE™ LDS sample buffer, and 20% of the sample was analyzed by SDS-PAGE and western blot using a rabbit anti-SOCS2 primary antibody (abcam) and IRDye® 800CW donkey anti-rabbit IgG secondary antibody. The remaining precipitated protein samples were processed for mass-spec analysis. In brief, the samples were reduced with DTT alkylated with Iodoacetamide and subjected to the SP3 protein clean-up procedure. […]
LC-MS analysis was performed by the FingerPrints Proteomics Facility (University of Dundee). Analysis of peptide readout was performed on a Q-Exactive™ plus, Mass Spectrometer (Thermo Scientific) coupled to a Dionex Ultimate 3000 RS (Thermo Scientific). […]
MS raw data were analyzed using MaxQuant software, standard settings were used with the following changes and additions: The modified FASTA databases with individual substitutions of cysteines with the placeholder “U” (selenocysteine) were used[67]. […] The relative intensity of peptide […] without and with a modified cysteine (placeholder “U”) were analyzed by normalizing to total intensity of SOCS2 protein.

SMILES: CC(C)(C)C(=O)OCOP(=O)(OCOC(=O)C(C)(C)C)Oc1ccc(C[C@H](NC(=O)Cc2ccc(F)cc2)C(=O)NCc2cccc(NC(=O)CCl)c2)cc1 [MN714]
- half-life at 500 µM [1]: 1 to 1.5 h
- time to complete disappearance of the prodrug (downfield) peak [2]: ≤ 3 h
- relative intensity of modified peptide LDSIIUVK, normalised to total SOCS2 levels ([3]; 1uM): 24.9386
- relative intensity of unmodified peptide LDSIICVK, normalised to total SOCS2 levels ([3]; 1uM): 85.6581
- relative intensity of unmodified peptide LDSIICVK, normalised to total SOCS2 levels ([3]; 10uM): 0
